Source: the NIST ThermoML archive (doi:10.1016/j.jct.2017.06.001)

Experiment: xn = mol fraction of the nth substance listed
Settings: 100 kPa, Liquid; for speed of sound: Frequency=5 MHz, Pulse-echo method; for mass density: Vibrating tube method

OCCCCCO [1,5-pentanediol] + O
Settings	mass density [kg/m3]	speed of sound [m/s]
303.15 K, x1 = 0.005	995.24	–
303.15 K, x1 = 0.0101	995.18	–
303.15 K, x1 = 0.0196	995.46	–
303.15 K, x1 = 0.0251	995.87	–
303.15 K, x1 = 0.0304	996.33	–
303.15 K, x1 = 0.05	997.59	–
303.15 K, x1 = 0.0769	998.6	–
303.15 K, x1 = 0.1002	999.37	–
303.15 K, x1 = 0.1172	–	1668.9
303.15 K, x1 = 0.1188	–	1669.4
303.15 K, x1 = 0.1225	–	1670.4
303.15 K, x1 = 0.1232	–	1670.5
303.15 K, x1 = 0.127	–	1671.5
303.15 K, x1 = 0.1286	–	1671.8
303.15 K, x1 = 0.1312	–	1672.4
303.15 K, x1 = 0.1344	–	1673
303.15 K, x1 = 0.135	–	1673.1
303.15 K, x1 = 0.1389	–	1673.8
303.15 K, x1 = 0.1394	–	1673.8
303.15 K, x1 = 0.1438	999.75	–
303.15 K, x1 = 0.1443	–	1674.5
303.15 K, x1 = 0.1445	–	1674.6
303.15 K, x1 = 0.1496	–	1675.2
303.15 K, x1 = 0.1507	–	1675.3
303.15 K, x1 = 0.1548	–	1675.7
303.15 K, x1 = 0.1571	–	1675.9
303.15 K, x1 = 0.1598	–	1676.1
303.15 K, x1 = 0.163	–	1676.3
303.15 K, x1 = 0.1658	–	1676.5
303.15 K, x1 = 0.1708	–	1676.7
303.15 K, x1 = 0.1802	–	1676.9
303.15 K, x1 = 0.1845	999.44	–
303.15 K, x1 = 0.1897	–	1677
303.15 K, x1 = 0.1979	–	1676.8
303.15 K, x1 = 0.2069	–	1676.6
303.15 K, x1 = 0.2148	–	1676.3
303.15 K, x1 = 0.2235	–	1675.9
303.15 K, x1 = 0.2319	–	1675.5
303.15 K, x1 = 0.2409	–	1674.9
303.15 K, x1 = 0.2503	998.42	–
303.15 K, x1 = 0.2504	–	1674.3
303.15 K, x1 = 0.2626	–	1673.4
303.15 K, x1 = 0.2732	–	1672.6
303.15 K, x1 = 0.2834	–	1671.8
303.15 K, x1 = 0.2953	–	1670.8
303.15 K, x1 = 0.3	997.34	–
303.15 K, x1 = 0.3083	–	1669.6
303.15 K, x1 = 0.3214	–	1668.4
303.15 K, x1 = 0.3343	996.61	–
303.15 K, x1 = 0.3389	–	1666.8
303.15 K, x1 = 0.3516	–	1665.5
303.15 K, x1 = 0.3648	–	1664.2
303.15 K, x1 = 0.3773	–	1662.8
303.15 K, x1 = 0.3937	–	1661.1
303.15 K, x1 = 0.4071	–	1659.6
303.15 K, x1 = 0.4171	994.93	–
303.15 K, x1 = 0.4199	–	1658.1
303.15 K, x1 = 0.4346	–	1656.3
303.15 K, x1 = 0.447	–	1654.8
303.15 K, x1 = 0.454	994.03	–
303.15 K, x1 = 0.4637	–	1652.8
303.15 K, x1 = 0.4812	–	1650.5
303.15 K, x1 = 0.4955	–	1648.6
303.15 K, x1 = 0.5003	993	–
303.15 K, x1 = 0.5124	–	1646.4
303.15 K, x1 = 0.5315	–	1643.8
303.15 K, x1 = 0.5362	992.2	–
303.15 K, x1 = 0.5497	–	1641.2
303.15 K, x1 = 0.5687	–	1638.5
303.15 K, x1 = 0.5883	–	1635.7
303.15 K, x1 = 0.6098	–	1632.7
303.15 K, x1 = 0.6177	990.7	–
303.15 K, x1 = 0.63	–	1629.8
303.15 K, x1 = 0.6445	–	1627.7
303.15 K, x1 = 0.6478	990.1	–
303.15 K, x1 = 0.6622	–	1625.2
303.15 K, x1 = 0.6847	–	1622
303.15 K, x1 = 0.7025	989.2	–
303.15 K, x1 = 0.7039	–	1619.3
303.15 K, x1 = 0.7252	–	1616.4
303.15 K, x1 = 0.7448	–	1613.7
303.15 K, x1 = 0.7504	988.4	–
303.15 K, x1 = 0.7674	–	1610.7
303.15 K, x1 = 0.7881	–	1608.1
303.15 K, x1 = 0.7927	987.6	–
303.15 K, x1 = 0.8098	–	1605.3
303.15 K, x1 = 0.8318	–	1602.6
303.15 K, x1 = 0.8478	–	1600.6
303.15 K, x1 = 0.8605	986.4	–
303.15 K, x1 = 0.8678	–	1598.2
303.15 K, x1 = 0.8839	–	1596.3
303.15 K, x1 = 0.9004	985.7	–
303.15 K, x1 = 0.9005	–	1594.4
303.15 K, x1 = 0.9185	–	1592.2
303.15 K, x1 = 0.9359	–	1590.2
303.15 K, x1 = 0.9494	–	1588.6
303.15 K, x1 = 0.9496	984.6	–
303.15 K, x1 = 0.9623	–	1587.1
303.15 K, x1 = 0.9723	–	1585.9
303.15 K, x1 = 0.9822	–	1584.7
303.15 K, x1 = 0.9892	–	1583.9
303.15 K, x1 = 0.9947	–	1583.2
303.15 K, x1 = 0.9972	–	1582.9
303.15 K, x1 = 1	983.6	1582.5
308.15 K, x1 = 0.0001	–	1519.6
308.15 K, x1 = 0.0003	–	1520.1
308.15 K, x1 = 0.0005	–	1520.7
308.15 K, x1 = 0.0007	–	1521.5
308.15 K, x1 = 0.001	–	1522.4
308.15 K, x1 = 0.0014	–	1523.4
308.15 K, x1 = 0.0018	–	1524.7
308.15 K, x1 = 0.0023	–	1526.2
308.15 K, x1 = 0.0028	–	1527.9
308.15 K, x1 = 0.0034	–	1529.7
308.15 K, x1 = 0.004	–	1531.4
308.15 K, x1 = 0.0047	–	1533.5
308.15 K, x1 = 0.0055	–	1535.7
308.15 K, x1 = 0.0064	–	1538.1
308.15 K, x1 = 0.0073	–	1540.8
308.15 K, x1 = 0.0083	–	1543.6
308.15 K, x1 = 0.0094	–	1546.5
308.15 K, x1 = 0.0105	–	1549.3
308.15 K, x1 = 0.0116	–	1552.2
308.15 K, x1 = 0.0129	–	1555.4
308.15 K, x1 = 0.0141	–	1558.3
308.15 K, x1 = 0.0154	–	1561.5
308.15 K, x1 = 0.0167	–	1564.5
308.15 K, x1 = 0.0181	–	1567.6
308.15 K, x1 = 0.0195	–	1570.7
308.15 K, x1 = 0.0211	–	1574.1
308.15 K, x1 = 0.0225	–	1577
308.15 K, x1 = 0.0238	–	1579.8
308.15 K, x1 = 0.0252	–	1582.6
308.15 K, x1 = 0.0268	–	1585.5
308.15 K, x1 = 0.0283	–	1588.5
308.15 K, x1 = 0.0298	–	1591.2
308.15 K, x1 = 0.0316	–	1594.3
308.15 K, x1 = 0.0336	–	1597.7
308.15 K, x1 = 0.0351	–	1600.2
308.15 K, x1 = 0.0367	–	1602.6
308.15 K, x1 = 0.0384	–	1605.2
308.15 K, x1 = 0.0403	–	1608.1
308.15 K, x1 = 0.0417	–	1610
308.15 K, x1 = 0.0436	–	1612.7
308.15 K, x1 = 0.0459	–	1615.8
308.15 K, x1 = 0.0481	–	1618.5
308.15 K, x1 = 0.0505	–	1621.5
308.15 K, x1 = 0.0528	–	1624
308.15 K, x1 = 0.0551	–	1626.6
308.15 K, x1 = 0.0574	–	1629
308.15 K, x1 = 0.0594	–	1631
308.15 K, x1 = 0.062	–	1633.4
308.15 K, x1 = 0.0648	–	1635.9
308.15 K, x1 = 0.0671	–	1637.9
308.15 K, x1 = 0.0706	–	1640.7
308.15 K, x1 = 0.073	–	1642.4
308.15 K, x1 = 0.0758	–	1644.4
